Measured values: US10626144B2, “Peptide derivatives and uses thereof” (Nosopharm, priority 2014, dated 2020)
Square brackets hold non-standard residues; d marks the D form. Peptide text beside a SMILES is read from it. * marks the point of attachment. Pro(trans-4-F) = O=C(O)[C@@H]1C[C@@H](F)CN1; Dab(3S-OH) = NC[C@H](O)[C@H](N)C(=O)O; ΔZArg = N=C(N)NCC/C=C(\N)C(=O)O; dOrn = NCCC[C@@H](N)C(=O)O; NH(CH2)5NH2 = NCCCCCN*; NH(CH2)4NH2 = NCCCCN*

Legend:
Assay in all cases: MIC, broth microdilution (CLSI), reference strain
Conditions in all cases: CAMHB
[1] = test system: Pseudomonas aeruginosa ATCC 27853
[2] = test system: Escherichia coli ATCC 25922
[3] = test system: Acinetobacter baumannii ATCC 19606
[4] = test system: Staphylococcus aureus ATCC 13709

Pa: MIC Pseudomonas aeruginosa ATCC 27853 [1]	Ec: MIC Escherichia coli ATCC 25922 [2]	Ab: MIC Acinetobacter baumannii ATCC 19606 [3]	Sa: MIC Staphylococcus aureus ATCC 13709 [4]	Structure (SMILES)
+ (≤32 μg/mL)	++ (≤8 μg/mL)	− (>32 μg/mL)	++ (≤8 μg/mL)	N=C(N)NCC/C=C(\NC(=O)[C@@H](CCCCN)NC(=O)[C@H](Cc1cnc[nH]1)NC(=O)[C@@H]1CCCN1C(=O)[C@@H](CCCN)NC(=O)CNC(=O)[C@@H](NC(=O)[C@@H](NC(=O)[C@@H](N)CCCCN)[C@@H](O)CN)[C@@H](O)CN)C(=O)N[C@@H](CCCCN)C(=O)NCCCCN [22.11] (H-K[Dab(3S-OH)][Dab(3S-OH)]G[dOrn]PH[dK][ΔZArg]K-{NH(CH2)4NH2})
− (>32 μg/mL)	++ (≤8 μg/mL)	− (>32 μg/mL)	++ (≤8 μg/mL)	N=C(N)NCC/C=C(\NC(=O)[C@H](CCCCN)NC(=O)[C@H](Cc1c[nH]cn1)NC(=O)[C@@H]1CCCN1C(=O)[C@@H](CCCN)NC(=O)CNC(=O)[C@@H](NC(=O)[C@@H](NC(=O)[C@@H](N)CCCCN)[C@@H](O)CN)[C@@H](O)CN)C(=O)N[C@@H](CCCCN)C(=O)NCCCCCN [22.12] (H-K[Dab(3S-OH)][Dab(3S-OH)]G[dOrn]PHK[ΔZArg]K-{NH(CH2)5NH2}; C-terminus assumed)
++ (≤8 μg/mL)	+ (≤32 μg/mL)	− (>32 μg/mL)	++ (≤8 μg/mL)	N=C(N)NCC/C=C(\NC(=O)[C@H](CCCCN)NC(=O)[C@H](Cc1cnc[nH]1)NC(=O)[C@@H]1C[C@@H](F)CN1C(=O)[C@@H](CCCN)NC(=O)CNC(=O)[C@@H](NC(=O)[C@@H](NC(=O)[C@@H](N)CCCCN)[C@@H](O)CN)[C@@H](O)CN)C(=O)N[C@@H](CCCCN)C(=O)NCCCCN [22.13] (H-K[Dab(3S-OH)][Dab(3S-OH)]G[dOrn][Pro(trans-4-F)]HK[ΔZArg]K-{NH(CH2)4NH2})
− (>32 μg/mL)	++ (≤8 μg/mL)	− (>32 μg/mL)	++ (≤8 μg/mL)	C[C@H](NC(=O)/C(=C/CCNC(=N)N)NC(=O)[C@H](CCCCN)NC(=O)[C@H](Cc1cnc[nH]1)NC(=O)[C@@H]1CCCN1C(=O)[C@@H](CCCN)NC(=O)CNC(=O)[C@@H](NC(=O)[C@@H](NC(=O)[C@@H](N)CCCCN)[C@@H](O)CN)[C@@H](O)CN)C(N)=O [22.14] (H-K[Dab(3S-OH)][Dab(3S-OH)]G[dOrn]PHK[ΔZArg]A-NH2)
− (>32 μg/mL)	+ (≤32 μg/mL)	− (>32 μg/mL)	++ (≤8 μg/mL)	N=C(N)NCCC[C@H](NC(=O)[C@H](CCCCN)NC(=O)[C@H](Cc1cnc[nH]1)NC(=O)[C@@H]1CCCN1C(=O)[C@@H](CCCN)NC(=O)CNC(=O)[C@@H](NC(=O)[C@@H](NC(=O)[C@@H](N)CCCCN)[C@@H](O)CN)[C@@H](O)CN)C(=O)N[C@@H](CCCCN)C(=O)NCCCCN [22.17] (H-K[Dab(3S-OH)][Dab(3S-OH)]G[dOrn]PHKRK-{NH(CH2)4NH2})
− (>32 μg/mL)	+ (≤32 μg/mL)	− (>32 μg/mL)	++ (≤8 μg/mL)	C[C@H](NC(=O)[C@@H](CCCN)NC(=O)CNC(=O)[C@@H](NC(=O)[C@@H](NC(=O)[C@@H](N)CCCCN)[C@@H](O)CN)[C@@H](O)CN)C(=O)N[C@@H](Cc1cnc[nH]1)C(=O)N[C@@H](CCCCN)C(=O)N/C(=C\CCNC(=N)N)C(=O)N[C@@H](CCCCN)C(=O)NCCCCN [22.18] (H-K[Dab(3S-OH)][Dab(3S-OH)]G[dOrn]AHK[ΔZArg]K-{NH(CH2)4NH2})
++ (≤8 μg/mL)	+ (≤32 μg/mL)	− (>32 μg/mL)	++ (≤8 μg/mL)	N=C(N)NCC/C=C(\NC(=O)[C@H](CCCCN)NC(=O)[C@H](Cc1cnc[nH]1)NC(=O)[C@@H]1CCCN1C(=O)[C@@H](CCCN)NC(=O)CNC(=O)[C@@H](NC(=O)[C@@H](NC(=O)[C@@H](N)CCCCN)[C@@H](O)CN)[C@@H](O)CN)C(=O)O [22.20] (H-K[Dab(3S-OH)][Dab(3S-OH)]G[dOrn]PHK[ΔZArg]-OH)
− (>32 μg/mL)	− (>32 μg/mL)	− (>32 μg/mL)	++ (≤8 μg/mL)	NCCCCNC(=O)[C@H](CCCCN)NC(=O)[C@@H](CCCCN)NC(=O)[C@H](CCCCN)NC(=O)[C@H](Cc1cnc[nH]1)NC(=O)[C@@H]1CCCN1C(=O)[C@@H](CCCN)NC(=O)CNC(=O)[C@@H](NC(=O)[C@@H](NC(=O)[C@@H](N)CCCCN)[C@@H](O)CN)[C@@H](O)CN [22.21] (H-K[Dab(3S-OH)][Dab(3S-OH)]G[dOrn]PHK[dK]K-{NH(CH2)4NH2})
− (>32 μg/mL)	− (>32 μg/mL)	− (>32 μg/mL)	++ (≤8 μg/mL)	NCCCCNC(=O)[C@H](CCCCN)NC(=O)[C@@H](CCCN)NC(=O)[C@H](CCCCN)NC(=O)[C@H](Cc1cnc[nH]1)NC(=O)[C@@H]1CCCN1C(=O)[C@@H](CCCN)NC(=O)CNC(=O)[C@@H](NC(=O)[C@@H](NC(=O)[C@@H](N)CCCCN)[C@@H](O)CN)[C@@H](O)CN [22.22] (H-K[Dab(3S-OH)][Dab(3S-OH)]G[dOrn]PHK[dOrn]K-{NH(CH2)4NH2})
− (>32 μg/mL)	+ (≤32 μg/mL)	− (>32 μg/mL)	++ (≤8 μg/mL)	CCOC(=O)[C@H](CCCCN)NC(=O)/C(=C/CCNC(=N)N)NC(=O)[C@H](CCCCN)NC(=O)[C@H](Cc1cnc[nH]1)NC(=O)[C@@H]1CCCN1C(=O)[C@@H](CCCN)NC(=O)CNC(=O)[C@@H](NC(=O)[C@@H](NC(=O)[C@@H](N)CCCCN)[C@@H](O)CN)[C@@H](O)CN [22.28] (H-K[Dab(3S-OH)][Dab(3S-OH)]G[dOrn]PHK[ΔZArg]K-OEt)
− (>32 μg/mL)	+ (≤32 μg/mL)	− (>32 μg/mL)	++ (≤8 μg/mL)	N=C(N)NCC/C=C(\NC(=O)[C@H](CCCCN)NC(=O)[C@H](Cc1cnc[nH]1)NC(=O)[C@@H]1CCCN1C(=O)[C@@H](CCCN)NC(=O)CNC(=O)[C@@H](NC(=O)[C@@H](NC(=O)[C@@H](N)CCCCN)[C@@H](O)CN)[C@@H](O)CN)C(=O)N[C@@H](CCCCN)C(=O)O [22.29] (H-K[Dab(3S-OH)][Dab(3S-OH)]G[dOrn]PHK[ΔZArg]K-OH)
− (>32 μg/mL)	+ (≤32 μg/mL)	− (>32 μg/mL)	++ (≤8 μg/mL)	N=C(N)NCCC[C@@H](NC(=O)[C@H](CCCCN)NC(=O)[C@H](Cc1cnc[nH]1)NC(=O)[C@@H]1CCCN1C(=O)[C@@H](CCCN)NC(=O)CNC(=O)[C@@H](NC(=O)[C@@H](NC(=O)[C@@H](N)CCCCN)[C@@H](O)CN)[C@@H](O)CN)C(N)=O [22.30] (H-K[Dab(3S-OH)][Dab(3S-OH)]G[dOrn]PHK[dR]-NH2)
